Data taken from patent US20220040136A1, “TREATMENT OF VULVOVAGINAL DISORDERS” (University of Rochester, priority 2018, published 2022).

Assays:
Type in all cases: cell-based
human vulvar fibroblasts [1] = assay: In vitro LPV model: SPM post-treatment of already activated patient fibroblasts, IL-6 and PGE2; conditions: post-treatment: IL-1β 30 min; for IL-6 production / PGE2 production: then 5 nM 18 hours, booster dose 24 hr; for IL-6 production: FIG. 24A; for PGE2 production: FIG. 24B
Method: (§1) FIGS. 5A, 5B, 5C, and 5D are a set of diagrams showing that PGE2 and IL-6 production is reduced by SPMs. Patient vestibular or vulvar fibroblasts were pre-treated for 10 hours with Lipoxin A4 (LxA4), Resolvin D2 (RvD2), (7R)-Maresin 1 or epi(7S)-Maresin 1 at a 5 nM concentration, then activated with IL-1β (Panel A; 10 pg/ml) or bradykinin (Panel B; 100 nM) for 48 hr. Culture media were collected and analyzed for PGE2 (Panel A) or IL-6 (Panel B) content. Patient fibroblasts were also activated first with IL-1β for 30 min then treated with 5 nM (7R)-Maresin 1 or LXA4 for 18 hours, followed by a booster dose for 6 hr. Culture media were collected and analyzed for PGE2 (Panel C) or IL-6 (Panel D) content. Mean+/−SEM of n=3, ANOVA *p<0.05 vs. activation only (no SPM).
FIGS. 24A and 24B are diagrams showing that six SPMs are effective in reducing IL-6 and PGE2 production from fibroblasts when used as a post-treatment. Patient vestibular or vulvar fibroblasts were activated first with IL-1β for 30 min then treated with RvD3, RvD4, RvD5, RvE1, Protectin D1 or Protectin DX at a 5 nM concentration for 18 hours, followed by a booster SPM dose for 24 hr. Culture media were collected and analyzed for IL-6 (Panel A) and PGE2 (Panel B) content. Mean+/−SEM of n=6 (two cases run in triplicate), ANOVA *p<0.05 vs. activation only (IL-1b). […] The magnitude of reduction was not as great as pre-treatment, but equally significant as the reduction from pre-treatment regimens.
(§2) In this example, a fibroblast-based in vitro LPV model was established. Briefly, fibroblast strains were obtained from two regions (FIG. 1) of the lower genital tract of localized provoked vulvodynia (LPV) cases and pain-free controls in the manner described in Falsetta et al. Am J Obstet Gynecol 2015, vol. 213, pp. 38 e1-12 and Foster et al., Pain 2015, vol. 156, pp. 386-96.
(§3) Over 30 paired fibroblast strains obtained from LPV-afflicted cases (fulfilling Friedrich's Criteria)^25 and age/race-matched (critical variables influencing LPV),^26, 27 pain-free controls were obtained. All subjects who contributed to the library were premenopausal, denied oral corticosteroids, non-steroidal, immunomodulatory, or anti-inflammatory medication use, and reported an absence of systemic/cutaneous inflammatory conditions at the time of sample collection. Mechanical pain thresholds were determined (via a method of limits) (0.5-5 N) using a Wagner algometer. Fibroblast identity was confirmed by microscopy and fibroblast markers (vimentin, collagen); only low passage (˜4) cells are used.
(§4) Synthesized, purified and commercially available SPMs from each known SPM class (E-series Resolvins, D-series Resolvins, Maresins, Protectins and Lipoxins) at low/nanomolar concentrations (1-100 nM) were tested. […] The inventors used one of two treatment regimens proven effective in vulvar fibroblasts and other cells: 1) overnight pre-treatment, followed by another treatment 30 min prior to stimulation with proinflammatory stimuli for 48 hr with a third dose of SPMs at 24 hr post-challenge, or 2) post-treatment with SPMs after a 30 min pre-treatment with inflammatory stimuli, followed by a booster dose 18 hr later. Both treatment regimens are of interest, as SPMs are active throughout the inflammatory process.^5-7 Even SPMs administered after LPV onset are likely to prevent the worsening or spread of LPV pain.

human vulvar fibroblasts [2] = assay: In vitro LPV model: SPM pre-treatment of patient vestibular/vulvar fibroblasts before inflammatory stimulation, IL-6 and PGE2 by ELISA/EIA; conditions: for IL-6 production / PGE2 production: pre-treated 18 h at 5 nM, again 30 min prior to activation, IL-1β 10 pg/ml 48 h, booster at 24 h; for IL-6 production: FIG. 23A; for PGE2 production: FIG. 23B; for effect on proinflammatory mediators linked to pain, initial tests: pre-treatment strategy, human vulvar fibroblasts; for prostaglandin E2 (PGE2) production / interleukin-6 (IL-6) production: pre-treated 10 hours with 5 nM SPM, vestibular and external vulvar fibroblasts; for prostaglandin E2 (PGE2) production: then IL-1β 10 pg/ml 48 hr, FIG. 5A; for interleukin-6 (IL-6) production: then bradykinin 100 nM 48 hr, FIG. 5B
Method: as §1
FIGS. 23A and 23B are diagrams showing six SPMs are effective in reducing IL-6 and PGE2 production from fibroblasts when used as a pre-treatment and post-treatment. Patient vestibular or vulvar fibroblasts were pre-treated for 18 h with Resolvin D3 (RvD3), Resolvin D4 (RvD4), Resolvin D5 (RvD5), Resolvin E1 (RvE1), Protectin D1 or Protectin DX at a 5 nM concentration, pre-treated again for 30 min prior to activation, then activated with 10 pg/ml IL-1β for 48 h with a booster SPM dose at 24 h. Culture media were collected and analyzed for IL-6 (Panel A) and PGE2 (Panel B). Mean+/−SEM of n=6 (two cases run in triplicate), ANOVA *p<0.05 vs. activation only (IL-1b).
as §2, §3, §4
Next, SPMs from other classes (E series Resolvins and Protectins), as well as additional SPMs from classes containing members that are effective in reducing IL-6 and PGE2 production (e.g., Maresins) were investigated in similar screen. […] SPMs that were effective in reducing more than one proinflammatory mediator in at least 2 tests can be examined for further testing using a preclinical mouse model. […] These additional effective SPMs include Resolvin D3, Resolvin D4, Resolvin D5, Resolvin E1, Protectin D1, and Protectin DX. […]

Mouse vulvar tissue = assay: Mouse vulvar explants (4 mm punch biopsy), IL-1β-stimulated PGE2 production; conditions: pre-treatment 18 hours, then IL-1β 10 pg/ml 18 hours; range of doses, as low as 1 nM; FIG. 6
Method: FIG. 6 is a diagram showing that SPMs inhibit PGE2 production from mouse vulvar tissue. Mouse vulvar tissue (4 mm punch biopsies) was collected and bisected then pre-treated in culture medium with either Maresin 1 or RvD2 at indicated concentrations for 18 hours, followed by an additional 18 hours stimulation with IL-1β (10 pg/ml). Culture medium was collected and analyzed for PGE2 content. Mean+/−SEM; n=3 replicate cultures. ANOVA * p<0.05 vs. vehicle.
Although SPM structure and therapeutic efficacy is conserved across species,^5-7 inventors first confirmed that mouse vulvar tissues responded to SPM treatment in vitro by culturing mouse vulvar explants (4 mm punch biopsy). The explants were stimulated with IL-1, and then assays were carried to assess the ability of Maresin 1 or RvD2 to reduce PGE2 production under the established pre-treatment regimen.

Structure (SMILES)	IL-6 production (human vulvar fibroblasts [1])	PGE2 production (human vulvar fibroblasts [1])	IL-6 production (human vulvar fibroblasts [2])	PGE2 production (human vulvar fibroblasts [2])	effect on proinflammatory mediators linked to pain, initial tests (human vulvar fibroblasts [2])	also measured
CC/C=C\C[C@H](O)/C=C/C=C\C/C=C\C=C\[C@@H](O)C/C=C\CCC(=O)O [Resolvin D5]	showed efficacy	showed efficacy	showed efficacy	showed efficacy		
CC/C=C\C[C@H](O)/C=C/C=C\C=C\[C@@H](O)C/C=C\C/C=C\CCC(=O)O [Protectin DX]	showed efficacy	showed efficacy	showed efficacy	showed efficacy		
CC/C=C\C[C@H](O)/C=C/C=C\C=C\C=C\[C@@H](O)[C@@H](O)C/C=C\CCC(=O)O [Resolvin D1, 7S,8R,17S-trihydroxy-docosa-4Z,9E,11E,13Z,15E,19Z-hexaenoic acid]					no striking effects	
CC/C=C\C[C@H](O)/C=C/C=C\C\C=C/C=C/C=C/[C@@H](O)[C@@H](O)CCC(=O)O [Resolvin D4, 4S,5,17S-trihydroxy-docosa-6E,8E,10Z,13Z,15E,19Z-hexaenoic acid]	showed efficacy	showed efficacy	showed efficacy	showed efficacy		
CCCCC[C@H](O)[C@H](O)/C=C/C=C/C=C\C=C\[C@@H](O)CCCC(=O)O [Lipoxin B4]					no striking effects	
CC/C=C\C[C@@H](O)/C=C/C=C\C=C\C=C\[C@@H](O)[C@@H](O)C/C=C\CCC(=O)O [AT-Resolvin D1, 7S,8R,17R-trihydroxy-docosa-4Z,9E,11E,13Z,15E,19Z-hexaenoic acid]					no striking effects	
CC/C=C\C[C@H](O)\C=C/C=C/C=C/[C@H](O)C/C=C\C/C=C\CCC(=O)O [Protectin D1, 10R,17S-dihydroxy-docosa-4Z,7Z,11E,13E,15Z,19Z-hexaenoic acid]	showed efficacy	showed efficacy	showed efficacy	showed efficacy		
CC/C=C\C[C@H](O)[C@H](O)/C=C/C=C/C=C\C=C\[C@@H](O)C/C=C\CCC(=O)O [Resolvin D2, 7S,16R,17S-trihydroxy-docosa-4Z,8E,10Z,12E,14E,19Z-hexaenoic acid]						PGE2 responses following IL-1β treatment (Mouse vulvar tissue): significantly suppressed; prostaglandin E2 (PGE2) production (human vulvar fibroblasts [2]): significantly reduced; interleukin-6 (IL-6) production (human vulvar fibroblasts [2]): significantly reduced
CCCCC[C@H](O)/C=C/C=C\C=C\C=C\[C@@H](O)[C@@H](O)CCCC(=O)O [Lipoxin A4, 5S,6R,15S-trihydroxy-eicosa-7E,9E,11Z,13E-tetraenoic acid]						PGE2 levels (human vulvar fibroblasts [1]; then 5 nM SPM 18 hours, booster dose 6 hr, FIG. 5C): significantly reduced; IL-6 levels (human vulvar fibroblasts [1]; then 5 nM SPM 18 hours, booster dose 6 hr, FIG. 5D): significantly reduced; prostaglandin E2 (PGE2) production (human vulvar fibroblasts [2]): significantly reduced; interleukin-6 (IL-6) production (human vulvar fibroblasts [2]): significantly reduced
CC/C=C\C/C=C\C[C@H](O)\C=C/C=C/C=C/[C@@H](O)C/C=C\CCC(=O)O [epi-Maresin 1, 7S,14S-docosa-4Z,8E,10E,12Z,16Z,19Z-hexaenoic acid]						prostaglandin E2 (PGE2) production (human vulvar fibroblasts [2]): significantly reduced; interleukin-6 (IL-6) production (human vulvar fibroblasts [2]): significantly reduced
CC/C=C\C[C@H](O)/C=C/C=C\C[C@@H](O)/C=C/C=C/C=C\[C@@H](O)CCC(=O)O [Resolvin D3, 4S,11R,17S-trihydroxy-docosa-5Z,7E,9E,13Z,15E,19Z-hexaenoic acid]	showed efficacy	showed efficacy	showed efficacy	showed efficacy		
CC/C=C\C[C@H](O)/C=C/C=C\C/C=C\C/C=C\C/C=C\CCC(=O)O [17(S)-HDHA, 17(S)-hydroxy docosahexaenoic acid]					no striking effects	
CC[C@@H](O)/C=C/C=C\C[C@@H](O)/C=C/C=C/C=C\[C@@H](O)CCCC(=O)O [Resolvin E1, 5S,12,18-trihydroxy-eicosa-6Z,8E,10E,14Z,16E-pentaenoic acid]	showed efficacy	showed efficacy	showed efficacy	showed efficacy		
